# According to patent US20160090556A1, “PRODUCTS COMPRISING MALODOR REDUCTION MATERIALS” (The Procter & Gamble Company, priority 2014, published 2016):
# Experiment: Liquid dish neat product liquid-air partition coefficient
# Format: physicochemical
# Conditions: not given
row,Compound,Log of liquid dish neat product liquid-air partition coefficient (Comment Code K/L)
1,CCCCCCCCCC(=O)O [Material 582],K (Log of liquid dish neat product liquid-air partition coefficient greater than or equal to −7)
2,C=C(C)C1CCC2(C)CCC=C(C)C2C1 (stereo not drawn) [Material 692],K (Log of liquid dish neat product liquid-air partition coefficient greater than or equal to −7)
3,C=C1CCCC(C)(C)C2C=C(C)CCC12 (stereo not drawn) [Material 707],K (Log of liquid dish neat product liquid-air partition coefficient greater than or equal to −7)
4,COc1ccc(CC(C)C=O)cc1 (stereo not drawn) [Material 586],K (Log of liquid dish neat product liquid-air partition coefficient greater than or equal to −7)
5,Cc1ccc(CC(C)C=O)cc1 (stereo not drawn) [Material 742],K (Log of liquid dish neat product liquid-air partition coefficient greater than or equal to −7)
6,C=C(C)C1CC=C(C)C(OC(C)=O)C1 (stereo not drawn) [Material 577],K (Log of liquid dish neat product liquid-air partition coefficient greater than or equal to −7)
7,C=C(C)C1CCC(C)(O)CC1 (stereo not drawn) [Material 612],K (Log of liquid dish neat product liquid-air partition coefficient greater than or equal to −7)
8,COC(Cc1ccccc1)OC [Material 627],K (Log of liquid dish neat product liquid-air partition coefficient greater than or equal to −7)
9,CCCCCCCCC=CC=O [Material 828],K (Log of liquid dish neat product liquid-air partition coefficient greater than or equal to −7)
10,CCCOC(C)OCCc1ccccc1 (stereo not drawn) [Material 766],K (Log of liquid dish neat product liquid-air partition coefficient greater than or equal to −7)
11,CC(=O)c1cc(C(C)(C)C)cc2c1CCC2(C)C [Material 563],K (Log of liquid dish neat product liquid-air partition coefficient greater than or equal to −7)
12,CCC(=O)C=CC1C(C)=CCCC1(C)C (stereo not drawn) [Material 700],K (Log of liquid dish neat product liquid-air partition coefficient greater than or equal to −7)
13,C=CCCC(=O)C1=CCCC(C)(C)C1 [Material 697],K (Log of liquid dish neat product liquid-air partition coefficient greater than or equal to −7)
14,CC1=CCCC2(C)CCC(C(C)(C)O)CC12 (stereo not drawn) [Material 712],K (Log of liquid dish neat product liquid-air partition coefficient greater than or equal to −7)
15,CC1=CC2C(C(C)C)CCC(C)(O)C2CC1 (stereo not drawn) [Material 1047],K (Log of liquid dish neat product liquid-air partition coefficient greater than or equal to −7)
16,C=CCOC(=O)COCCC(C)C [Material 748],K (Log of liquid dish neat product liquid-air partition coefficient greater than or equal to −7)
17,c1ccc(CCOC2CCCCC2)cc1 [Material 953],K (Log of liquid dish neat product liquid-air partition coefficient greater than or equal to −7)
18,CCC(C)(O)CCc1ccccc1 (stereo not drawn) [Material 731],K (Log of liquid dish neat product liquid-air partition coefficient greater than or equal to −7)
19,CC(C)=CCCC1=CCC(C#N)CC1 (stereo not drawn) [Material 660],K (Log of liquid dish neat product liquid-air partition coefficient greater than or equal to −7)
20,CC(C)(C)c1ccc(CCC=O)cc1 [Material 601],K (Log of liquid dish neat product liquid-air partition coefficient greater than or equal to −7)
21,CC1CC(C)(c2ccccc2)CO1 (stereo not drawn) [Material 1006],K (Log of liquid dish neat product liquid-air partition coefficient greater than or equal to −7)
22,CC1(O)CCC2=C(CCCC2(C)C)C1 (stereo not drawn) [Material 675],K (Log of liquid dish neat product liquid-air partition coefficient greater than or equal to −7)
23,CC1=CCC(C23CCCC(C)(C2)OC3)C1(C)C (stereo not drawn) [Material 570],K (Log of liquid dish neat product liquid-air partition coefficient greater than or equal to −7)
24,C=C1C2CCC(C)(OCC)C1CCC2(C)C (stereo not drawn) [Material 606],K (Log of liquid dish neat product liquid-air partition coefficient greater than or equal to −7)

# Same assay, conditions: class code letter within Comment Code
row,Compound,Log of liquid dish neat product liquid-air partition coefficient (Comment Code K/L)
1,CCCCCCCC(=O)OCCCCCC [Material 263],K (Log of liquid dish neat product liquid-air partition coefficient greater than or equal to −7)
2,C=CC(O)(CC)CCC=C(C)C (stereo not drawn) [Material 390],K (Log of liquid dish neat product liquid-air partition coefficient greater than or equal to −7)
3,CC=Cc1ccc(OC)c(OC)c1 [Material 108],K (Log of liquid dish neat product liquid-air partition coefficient greater than or equal to −7)
4,CCC1=CCCC(C)(C)C12C=CC(C)O2 (stereo not drawn) [Material 413],K (Log of liquid dish neat product liquid-air partition coefficient greater than or equal to −7)
5,CCCCCCCCCCCC#N [Material 498],K (Log of liquid dish neat product liquid-air partition coefficient greater than or equal to −7)
6,CC(=O)OCCC1=CCC2CC1C2(C)C (stereo not drawn) [Material 47],K (Log of liquid dish neat product liquid-air partition coefficient greater than or equal to −7)
7,CC1=CC2(C=CC(C)O2)C(C(C)C)CC1 (stereo not drawn) [Material 68],K (Log of liquid dish neat product liquid-air partition coefficient greater than or equal to −7)
8,CCC(=O)OC1CC2CCC1(C)C2(C)C (stereo not drawn) [Material 228],K (Log of liquid dish neat product liquid-air partition coefficient greater than or equal to −7)
9,C=CCc1ccc(OC)cc1 [Material 119],K (Log of liquid dish neat product liquid-air partition coefficient greater than or equal to −7)
10,CC(C)C1OC2(CCCC2)OCC1(C)C (stereo not drawn) [Material 25],K (Log of liquid dish neat product liquid-air partition coefficient greater than or equal to −7)
11,CCCC(=O)OC(C)(C)Cc1ccccc1 [Material 432],K (Log of liquid dish neat product liquid-air partition coefficient greater than or equal to −7)
12,COC(C=C(C)CCC=C(C)C)OC [Material 520],K (Log of liquid dish neat product liquid-air partition coefficient greater than or equal to −7)
13,O=C1CCCCCCCCCCCCCC1 [Material 480],K (Log of liquid dish neat product liquid-air partition coefficient greater than or equal to −7)
14,COc1ccccc1-c1ccccc1 [Material 22],K (Log of liquid dish neat product liquid-air partition coefficient greater than or equal to −7)
15,CC1=CCC(C(C)CC2CCCC2=O)CC1 (stereo not drawn) [Material 69],K (Log of liquid dish neat product liquid-air partition coefficient greater than or equal to −7)
16,OCC=Cc1ccccc1 [Material 555],K (Log of liquid dish neat product liquid-air partition coefficient greater than or equal to −7)

# Same assay, conditions: code letters K, L
row,Compound,Comment Code: Log of liquid dish neat product liquid-air partition coefficient
1,CCOC(=O)OC1CCCCC1C(C)(C)C (stereo not drawn) [Material 355],K (Log of liquid dish neat product liquid-air partition coefficient greater than or equal to −7)
2,O=C/C=C/c1ccccc1 [Material 554],K (Log of liquid dish neat product liquid-air partition coefficient greater than or equal to −7)
3,COC(Cc1ccccc1)OC [Material 627],K (Log of liquid dish neat product liquid-air partition coefficient greater than or equal to −7)
4,CC(=O)CCc1ccccc1 [Material 640],K (Log of liquid dish neat product liquid-air partition coefficient greater than or equal to −7)
5,CC=CC(=O)C1C(C)=CCCC1(C)C (stereo not drawn) [Material 880],K (Log of liquid dish neat product liquid-air partition coefficient greater than or equal to −7)
6,CCOc1cc(COC)ccc1O [Material 115],K (Log of liquid dish neat product liquid-air partition coefficient greater than or equal to −7)
7,COc1ccc(C=O)cc1OC [Material 1118],K (Log of liquid dish neat product liquid-air partition coefficient greater than or equal to −7)
8,CC1=CCCC2(C)CCC(C(C)(C)O)CC12 (stereo not drawn) [Material 712],K (Log of liquid dish neat product liquid-air partition coefficient greater than or equal to −7)
9,Cc1ccc(C(C)C)cc1O [Material 575],K (Log of liquid dish neat product liquid-air partition coefficient greater than or equal to −7)
10,CC(=O)CCc1ccc(O)cc1 [Material 1002],K (Log of liquid dish neat product liquid-air partition coefficient greater than or equal to −7)
11,CC1=CCC(C23CCCC(C)(C2)OC3)C1(C)C (stereo not drawn) [Material 570],K (Log of liquid dish neat product liquid-air partition coefficient greater than or equal to −7)
